The source of these data is patent US12338237B2, “Derivatives having 1,2,3,4-tetrahydronaphthalene moiety or pharmaceutically acceptable salt thereof and pharmaceutical compositions comprising the same” (YUHAN CORPORATION, priority 2019, dated 2025).

Like-named read-outs stand apart in the source and are kept apart here.

One experiment relates to GM1 production. Nature of the experiment: cells. The format is cell-based.
Experiment [1] deals with glucosylceramide synthase (GCS) (Homo sapiens (Human), UniProt Q16739). In words: Evaluation of inhibitory activities against GCS (enzyme reaction with A549 cell lysate, NBD C6-ceramide, HPLC fluorescence). The format is biochemical. Conditions: GCS activity in A549 cell lysate, 37° C. for 90 minutes. An outline of the steps: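 Lysate of A549 cells in 50 mM HEPES pH 7.3 incubated with test compound and NBD C6-ceramide at 37 °C for 90 min; lipids extracted with chloroform/methanol and GlcCer and ceramide peaks quantified by HPLC fluorescence. Activity from GlcCer area fraction, normalised between DMSO and ibiglustat controls.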
Chain of glucosylceramide synthase (GCS) (Q16739 whole entry, looked up): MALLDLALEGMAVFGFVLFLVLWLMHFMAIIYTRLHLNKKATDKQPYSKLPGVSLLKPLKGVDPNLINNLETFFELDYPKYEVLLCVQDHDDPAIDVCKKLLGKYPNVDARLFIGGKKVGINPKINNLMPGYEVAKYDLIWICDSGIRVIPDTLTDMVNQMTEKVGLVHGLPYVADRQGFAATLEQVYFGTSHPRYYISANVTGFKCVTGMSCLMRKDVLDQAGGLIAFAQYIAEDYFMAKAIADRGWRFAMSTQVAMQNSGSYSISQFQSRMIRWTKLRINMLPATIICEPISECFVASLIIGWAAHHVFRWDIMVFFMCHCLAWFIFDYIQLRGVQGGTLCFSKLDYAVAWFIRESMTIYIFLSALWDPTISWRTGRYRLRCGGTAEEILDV

As to `CC(C)(C)c1cccc(-c2ccc3c(c2)CCC2(CC2)C3NC(=O)O[C@@H]2CN3CCC2CC3)c1` (stereo partly drawn) [Example 204, (S)-quinuclidin-3-yl (6′-(3-(tert-butyl)phenyl)-3′,4′-dihydro-1′H-spiro[cyclopropane-1,2′-naphthalen]-1′-yl)carbamate], the IC50 in the experiment on GM1 production (Homo sapiens, Jurkat, 72 h) came out at 92.9 nM; in experiment [1] it was 38.4 nM.

Turning to `CC(C)c1cccc(-c2ccc3c(c2)CCC2(CC2)C3NC(=O)O[C@@H]2CN3CCC2CC3)c1` (stereo partly drawn) [Example 205, (S)-quinuclidin-3-yl (6′-(3-isopropylphenyl)-3′,4′-dihydro-1′H-spiro[cyclopropane-1,2′-naphthalen]-1′-yl)carbamate], the IC50 with GM1 production (Homo sapiens, Jurkat, 72 h) was 44.3 nM; in experiment [1], 34.2 nM.

For `O=C(NC1c2ccc(-c3cccc(C(F)F)c3)cc2CCC12CC2)O[C@@H]1CN2CCC1CC2` (stereo partly drawn) [Example 206, (S)-quinuclidin-3-yl (6′-(3-(difluoromethyl)phenyl)-3′,4′-dihydro-1′H-spiro[cyclopropane-1,2′-naphthalen]-1′-yl)carbamate], the IC50 came out at 15.2 nM in the experiment on GM1 production (Homo sapiens, Jurkat, 72 h) and 10.2 nM in experiment [1].

For `CN(C)c1cccc(-c2ccc3c(c2)CCC2(CC2)C3NC(=O)O[C@@H]2CN3CCC2CC3)c1` (stereo partly drawn) [Example 207, (S)-quinuclidin-3-yl (6′-(3-(dimethylamino)phenyl)-3′,4′-dihydro-1′H-spiro[cyclopropane-1,2′-naphthalen]-1′-yl)carbamate], the IC50 with GM1 production (Homo sapiens, Jurkat, 72 h) was 57.3 nM; in experiment [1], 23.2 nM.

`CC(C)Oc1cccc(-c2ccc3c(c2)CCC2(CC2)C3NC(=O)O[C@@H]2CN3CCC2CC3)c1` (stereo partly drawn) [Example 208, (S)-quinuclidin-3-yl (6′-(3-isopropoxyphenyl)-3′,4′-dihydro-1′H-spiro[cyclopropane-1,2′-naphthalen]-1′-yl)carbamate]: the IC50 with GM1 production (Homo sapiens, Jurkat, 72 h) was found to be 47.7 nM; in experiment [1], 21.2 nM.

Consider `COc1cccc(-c2ccc3c(c2)CCC2(CC2)C3NC(=O)O[C@@H]2CN3CCC2CC3)c1OC` (stereo partly drawn) [Example 209, (S)-quinuclidin-3-yl (6′-(2,3-dimethoxyphenyl)-3′,4′-dihydro-1′H-spiro[cyclopropane-1,2′-naphthalen]-1′-yl)carbamate], for which the IC50 in the experiment on GM1 production (Homo sapiens, Jurkat, 72 h) came out at 47 nM; in experiment [1] it was 15.2 nM.

Consider `COc1ccc(-c2ccc3c(c2)CCC2(CC2)C3NC(=O)O[C@@H]2CN3CCC2CC3)c(OC)c1` (stereo partly drawn) [Example 210, (S)-quinuclidin-3-yl (6′-(2,4-dimethoxyphenyl)-3′,4′-dihydro-1′H-spiro[cyclopropane-1,2′-naphthalen]-1′-yl)carbamate], for which the IC50 in the experiment on GM1 production (Homo sapiens, Jurkat, 72 h) was 44.2 nM; in experiment [1], 23.6 nM.

Regarding `COc1ccc(OC)c(-c2ccc3c(c2)CCC2(CC2)C3NC(=O)O[C@@H]2CN3CCC2CC3)c1` (stereo partly drawn) [Example 211, (S)-quinuclidin-3-yl (6′-(2,5-dimethoxyphenyl)-3′,4′-dihydro-1′H-spiro[cyclopropane-1,2′-naphthalen]-1′-yl)carbamate], the IC50 with GM1 production (Homo sapiens, Jurkat, 72 h) came to 147 nM; in experiment [1] it was 27.6 nM.

`COc1cccc(OC)c1-c1ccc2c(c1)CCC1(CC1)C2NC(=O)O[C@@H]1CN2CCC1CC2` (stereo partly drawn) [Example 212, (S)-quinuclidin-3-yl (6′-(2,6-dimethoxyphenyl)-3′,4′-dihydro-1′H-spiro[cyclopropane-1,2′-naphthalen]-1′-yl)carbamate]: the IC50 was found to be 221 nM in the experiment on GM1 production (Homo sapiens, Jurkat, 72 h) and 104 nM in experiment [1].

In the case of `COc1ccc(-c2ccc3c(c2)CCC2(CC2)C3NC(=O)O[C@@H]2CN3CCC2CC3)cc1OC` (stereo partly drawn) [Example 213, (S)-quinuclidin-3-yl (6′-(3,4-dimethoxyphenyl)-3′,4′-dihydro-1′H-spiro[cyclopropane-1,2′-naphthalen]-1′-yl)carbamate], the IC50 in the experiment with GM1 production (Homo sapiens, Jurkat, 72 h) came to 145 nM; in experiment [1], 34.2 nM.

Turning to `COc1cc(OC)cc(-c2ccc3c(c2)CCC2(CC2)C3NC(=O)O[C@@H]2CN3CCC2CC3)c1` (stereo partly drawn) [Example 214, (S)-quinuclidin-3-yl (6′-(3,5-dimethoxyphenyl)-3′,4′-dihydro-1′H-spiro[cyclopropane-1,2′-naphthalen]-1′-yl)carbamate], the IC50 in the experiment with GM1 production (Homo sapiens, Jurkat, 72 h) was 62.3 nM; in experiment [1] it was 32.6 nM.

For `COc1ccc(-c2ccc3c(c2)CCC2(CC2)C3NC(=O)O[C@@H]2CN3CCC2CC3)cc1` (stereo partly drawn) [Example 215, (S)-quinuclidin-3-yl (6′-(4-methoxyphenyl)-3′,4′-dihydro-1′H-spiro[cyclopropane-1,2′-naphthalen]-1′-yl) carbamate], the values for the IC50 (with GM1 production (read-out: IC50); in experiment [1]) were 57.3 nM and 2.35 nM, respectively.

Take `COc1cccc(-c2ccc3c(c2)CCC2(CC2)C3NC(=O)O[C@@H]2CN3CCC2CC3)c1` (stereo partly drawn) [Example 216, (S)-quinuclidin-3-yl (6′-(3-methoxyphenyl)-3′,4′-dihydro-1′H-spiro[cyclopropane-1,2′-naphthalen]-1′-yl) carbamate]: the 50% inhibitory concentration (IC50) in the experiment with GM1 production (read-out: IC50) was 115 nM; in experiment [1], 12.2 nM.

On to `CCOc1ccc(-c2ccc3c(c2)CCC2(CC2)C3NC(=O)O[C@@H]2CN3CCC2CC3)cc1` (stereo partly drawn) [Example 217, (S)-quinuclidin-3-yl (6′-(4-ethoxyphenyl)-3′,4′-dihydro-1′H-spiro[cyclopropane-1,2′-naphthalen]-1′-yl)carbamate], for which the IC50 was determined as 15.8 nM in the experiment on GM1 production (Homo sapiens, Jurkat, 72 h) and 1.01 nM in experiment [1].

In the case of `CCOc1cccc(-c2ccc3c(c2)CCC2(CC2)C3NC(=O)O[C@@H]2CN3CCC2CC3)c1` (stereo partly drawn) [Example 218, (S)-quinuclidin-3-yl (6′-(3-ethoxyphenyl)-3′,4′-dihydro-1′H-spiro[cyclopropane-1,2′-naphthalen]-1′-yl)carbamate], the half-maximal inhibitory concentration (IC50) in the experiment on GM1 production (Homo sapiens, Jurkat, 72 h) came to 63.3 nM; in experiment [1] it was 19.8 nM.

Consider `CC(C)Oc1ccc(-c2ccc3c(c2)CCC2(CC2)C3NC(=O)O[C@@H]2CN3CCC2CC3)cc1` (stereo partly drawn) [Example 219, (S)-quinuclidin-3-yl (6′-(4-isopropoxyphenyl)-3′,4′-dihydro-1′H-spiro[cyclopropane-1,2′-naphthalen]-1′-yl)carbamate], for which the IC50 with GM1 production (Homo sapiens, Jurkat, 72 h) stood at 16 nM; in experiment [1] it was 1.1 nM.

As to `CCCOc1ccc(-c2ccc3c(c2)CCC2(CC2)C3NC(=O)O[C@@H]2CN3CCC2CC3)cc1` (stereo partly drawn) [Example 220, (S)-quinuclidin-3-yl (6′-(4-propoxyphenyl)-3′,4′-dihydro-1′H-spiro[cyclopropane-1,2′-naphthalen]-1′-yl) carbamate], the IC50 in the experiment on GM1 production (read-out: IC50) is 6.7 nM; in experiment [1], 0.63 nM.

Take `CCc1ccc(-c2ccc3c(c2)CCC2(CC2)C3NC(=O)O[C@@H]2CN3CCC2CC3)cc1` (stereo partly drawn) [Example 221, (S)-quinuclidin-3-yl (6′-(4-ethylphenyl)-3′,4′-dihydro-1′H-spiro[cyclopropane-1,2′-naphthalen]-1′-yl)carbamate]: the IC50 with GM1 production (Homo sapiens, Jurkat, 72 h) came out at 18.8 nM; in experiment [1], 2.01 nM.

On to `CCCc1ccc(-c2ccc3c(c2)CCC2(CC2)C3NC(=O)O[C@@H]2CN3CCC2CC3)cc1` (stereo partly drawn) [Example 222, (S)-quinuclidin-3-yl (6′-(4-propylphenyl)-3′,4′-dihydro-1′H-spiro[cyclopropane-1,2′-naphthalen]-1′-yl)carbamate], for which the IC50 with GM1 production (Homo sapiens, Jurkat, 72 h) came to 9.3 nM; in experiment [1], 0.75 nM.

For the molecule `CC(C)c1ccc(-c2ccc3c(c2)CCC2(CC2)C3NC(=O)O[C@@H]2CN3CCC2CC3)cc1` (stereo partly drawn) [Example 223, (S)-quinuclidin-3-yl (6′-(4-isopropylphenyl)-3′,4′-dihydro-1′H-spiro[cyclopropane-1,2′-naphthalen]-1′-yl)carbamate], the IC50 with GM1 production (Homo sapiens, Jurkat, 72 h) amounted to 24.1 nM; in experiment [1] it was 2.4 nM.

For `CC(C)Cc1ccc(-c2ccc3c(c2)CCC2(CC2)C3NC(=O)O[C@@H]2CN3CCC2CC3)cc1` (stereo partly drawn) [Example 224, (S)-quinuclidin-3-yl (6′-(4-isobutylphenyl)-3′,4′-dihydro-1′H-spiro[cyclopropane-1,2′-naphthalen]-1′-yl)carbamate], the IC50 in the experiment with GM1 production (Homo sapiens, Jurkat, 72 h) came out at 6.7 nM; in experiment [1], 1.53 nM.

Take `CC(C)(C)c1ccc(-c2ccc3c(c2)CCC2(CC2)C3NC(=O)O[C@@H]2CN3CCC2CC3)cc1` (stereo partly drawn) [Example 225, (S)-quinuclidin-3-yl (6′-(4-(tert-butyl)phenyl)-3′,4′-dihydro-1′H-spiro[cyclopropane-1,2′-naphthalen]-1′-yl)carbamate]: the IC50 with GM1 production (Homo sapiens, Jurkat, 72 h) is 22.4 nM; in experiment [1] it was 6.55 nM.

Regarding `O=C(NC1c2ccc(-c3ccc(C4CC4)cc3)cc2CCC12CC2)O[C@@H]1CN2CCC1CC2` (stereo partly drawn) [Example 226, (S)-quinuclidin-3-yl (6′-(4-cyclopropylphenyl)-3′,4′-dihydro-1′H-spiro[cyclopropane-1,2′-naphthalen]-1′-yl)carbamate], the IC50 in the experiment on GM1 production (Homo sapiens, Jurkat, 72 h) came out at 10.8 nM; in experiment [1], 0.93 nM.

For the molecule `COc1ccc(-c2cc3c(cc2F)C(NC(=O)O[C@@H]2CN4CCC2CC4)C(C)(C)CC3)cc1F` (stereo partly drawn) [Example 227, (S)-quinuclidin-3-yl (7-fluoro-6-(3-fluoro-4-methoxyphenyll)-2,2-dimethyl-1,2,3,4-tetrahydronaphthalen-1-yl)carbamate], the IC50 in the experiment on GM1 production (read-out: IC50) is 12.8 nM; in experiment [1], 0.5 nM.

Consider `CCCOc1c(C)cc(-c2cc3c(cc2F)C(NC(=O)O[C@@H]2CN4CCC2CC4)C(C)(C)CC3)cc1C` (some centres unmarked) [Example 228], for which the figures for the IC50 (in the experiment with GM1 production (read-out: IC50); in experiment [1]) were 12.5 nM and 1.34 nM, respectively.

On to `CCCc1ccc(-c2cc3c(cc2F)C(NC(=O)O[C@@H]2CN4CCC2CC4)C(C)(C)CC3)cc1` (stereo partly drawn) [Example 229, (S)-quinuclidin-3-yl (7-fluoro-2,2-dimethyl-6-(4-propylphenyl)-1,2,3,4-tetrahydronaphthalen-1-yl)carbamate], for which the IC50 in the experiment on GM1 production (Homo sapiens, Jurkat, 72 h) is 1.7 nM; in experiment [1], 0.31 nM.

For `CC(C)Cc1ccc(-c2cc3c(cc2F)C(NC(=O)O[C@@H]2CN4CCC2CC4)C(C)(C)CC3)cc1` (stereo partly drawn) [Example 230, (S)-quinuclidin-3-yl (7-fluoro-6-(4-isobutylphenyl)-2,2-dimethyl-1,2,3,4-tetrahydronaphthalen-1-yl)carbamate], the IC50 came to 1.8 nM in the experiment with GM1 production (Homo sapiens, Jurkat, 72 h) and 0.3 nM in experiment [1].

On to `CC(C)(C)Oc1cc(-c2cc3c(cc2F)C(NC(=O)O[C@@H]2CN4CCC2CC4)C(C)(C)CC3)ccn1` (some centres unmarked) [Example 231], for which the IC50 was found to be 3.8 nM in the experiment with GM1 production (read-out: IC50) and 0.86 nM in experiment [1].

What is called IC50 is the concentration at which inhibition is half-maximal.
